# Test results: US10750762B2, “Bio-based N-acetyl-L-methionine and use thereof” (CJ Cheiljedang Corporation, priority 2015, dated 2020)
# Where two headings read alike, the source gives them in different places.
# Key:
# extracts of bovine liver = assay: Digestive degradation by extracts of liver; format: in vitro ADME; details: Korean native cattle, 24 h
# Experimental: The liver of Korean native cattle (record number: KOR005078680400), slaughtered in Bucheon livestock products market of National Agricultural Cooperative Federation, was purchased. After mixing liver tissues (0.125 g) with 20 mM sodium phosphate buffer (pH 7.4, 1 mL), glass beads (Sigma G1145) were filled in about 1/10 of a tube (2 mL). The cell tissues were disrupted using a beadbeater (MP™ FastPrep) for three times with each 20 seconds, and the resultant was centrifuged at 4° C. at 14,000 rpm for 10 minutes to obtain supernatants.
# To confirmed the enzymatic activity of the extracts obtained from small intestine and liver, acylase I (sigma A3010) extracted from pig kidney was used. […]
# (§1) In order to remove protein in the sample which the reaction was over, perchloric acid (0.5%) was added therein and diluted 10-fold. Thereafter, the N-acetyl-L-methionine and L-methionine existing in the supernatant, which is separated by centrifugation at 14,000 for 10 minutes, were quantitatively analyzed (HPLC). Conversion rate (%) was calculated by comparing the molar concentrations (mM) between the N-acetyl-L-methionine prior to the reaction and the L-methionine after the reaction, in terms of the percentage (%) (the molecular weight of the N-acetyl-L-methionine: […]; and the molecular weight of the L-methionine: […]). […]
# [1] = test system: extracts of bovine small intestine; format: in vitro ADME; details: Korean native cattle, 24 h
# Experimental: The small intestine (40 m) of Korean native cattle (record number: KOR005078680400), slaughtered in Bucheon livestock products market of National Agricultural Cooperative Federation, was purchased. After slicing the small intestine to around 1 m, 20 mM sodium phosphate buffer (pH 7.4, 5 mL) was added in the sliced small intestine. Thereafter, while holding each ends of the small intestine, the small intestine was repeatedly waggled to help most of enzymes in the small intestine to be dissolved by the sodium phosphate buffer. […]
# as §1
# ruminal microflora = details: male, Holstein, cattle, 2 mg/mL
# Experimental: One Holstein steer (weighing around 630 kg to 650 kg) equipped with ruminal cannula was provided for an experimental purpose, and the Holstein steer was bred by feeding the commercial feed (Milkgen™, CJ CheilJedang) and rice straws twice a day (7:30 a.m., 3:[…].).
# The collection of ruminal fluid was carried out at 10 a.m. on the experimental day. Contents in the rumen were removed through a cannula, and gastric fluid was extracted with gauze by squeezing the same. Thereafter, the extracted gastric fluid was placed in a vacuum flask, and bubbled with CO2. The vacuum flak containing the gastric fluid was then carried to a laboratory while blocking a penetration of oxygen. It took less than an hour to carry the ruminal fluid to the laboratory.
# The ruminal fluid carried to the laboratory was filtered with two layers of gauze, and then it was used as anaerobic culture medium by mixing the same with a biomimetic solution of McDougall's buffer (Troelsen and Donna, 1966), which is commonly used in the in vitro rumen bypass test, in a ratio of 1:3.
# A feed used in the experiment was the commercial feed (Milkgen™), a feed substantially used for cattle breeding, and the feed was also used as a basal diet. Further, the experimental samples were prepared by mixing the basal diet with a test material. The test material used in this experiment was N-acetyl-L-methionine, and this was used as an experimental group 1. The experimental group 1 was compared with the control group 1 composed of only the basal diet without the test material, and also compared with the control group 2 composed of the test material, L-methionine. The culture was carried out with three replications for each experimental group.
# The basal diet and test material were mixed in a ratio of 4:1 (basic diet (0.4 g), test material (0.1 g); but only 0.5 g of basic diet in control group 1). The culture initiated when the mixed test material (0.5 g) was added in a culture bottle (125 mL), and then mixed it with the prepared anaerobic culture medium (50 mL), and placed in 40° C. incubator upon sealing of the same.
# O2 free CO2 was sprayed during the entire process including dilution of the ruminal fluid until the initiation of the culture, so that the ruminal fluid was not exposed to oxygen. Therefore, the anaerobic condition was maintained.
# The culture was finally carried out for 48 hours, and sampling of the culture medium was carried out a total of four times (0 h, 24 h, 36 h, 48 h) upon the initiation of the culture. At each sampling, the sample placed in the 40° C. incubator was moved from the incubator and opened its lid. Thereafter, a supernatant was obtained by centrifuging the culture medium at 4000 rpm for 10 minutes, and then the amount of the test material present in the supernatant was measured.
# The bypass rate (%) is represented as a residual amount (%) at time-points of 24 hours, 36 hours, and 48 hours, based on the amount of a test material at the time-point of 0 hour (100%).
# [2] = Milk production and composition on feeding N-acetyl-L-methionine; format: in vivo, dairy cows
# Experimental: Based on the in vitro evaluation, the N-acetyl-L-methionine, for which high digestive degradation rate in the small intestine and bypass rate in the rumen had been observed, was subjected to verify its efficiency through a substantial evaluation with dairy cows. In order for this, the cows were divided into two separated groups, and the change in milk composition depending on presence or absence of the N-acetyl-L-methionine was analyzed during the evaluation. For this, eight dairy cows were divided into two groups so that each group consists of four cows, respectively. Additionally, the N-acetyl-L-methionine was added to the feed composition (Table 12) which are fed by the four cows in one group (30 g of N-acetyl-L-methionine by each cow per a day), and it was carried out for 84 days. • Group 1: Non-addition of N-acetyl-L-methionine • Group 2: Addition of N-acetyl-L-methionine
# [3] = Weight gain effect on feeding N-acetyl-L-methionine; format: in vivo, beef steers
# Description: The weight gain effect of beef steers was verified through feeding N-acetyl-L-methionine. For the verification, 24 beef steers were divided into two groups so that each group consisted of 12 beef steers. […] In the group with the addition of N-acetyl-L-methionine, each beef steer was fed with the N-acetyl-L-methionine (30 g) per a day.
# [4] = 30 g per cow per day in feed, 84 days
# [5] = 30 g per steer per day, 90 days
smiles,measurement,setting,value
"CSCCC(NC(C)=O)C(=O)O (racemic) [N-acetyl-D,L-methionine, reference compound]",L-methionine (mM) after the reaction,extracts of bovine liver,6.36 mM
same,L-methionine (mM) after the reaction,[1],5.82 mM
CSCC[C@H](N)C(=O)O [L-methionine],"Rate of rumen bypass (%), Average",ruminal microflora; 0 h,100%
same,"Rate of rumen bypass (%), replicate 1",ruminal microflora; 0 h,100%
same,"Rate of rumen bypass (%), replicate 2",ruminal microflora; 0 h,100%
same,"Rate of rumen bypass (%), replicate 3",ruminal microflora; 0 h,100%
same,"Rate of rumen bypass (%), Average",ruminal microflora; 24 h,58.8%
same,"Rate of rumen bypass (%), replicate 1",ruminal microflora; 24 h,51.2%
same,"Rate of rumen bypass (%), replicate 2",ruminal microflora; 24 h,62.6%
same,"Rate of rumen bypass (%), replicate 3",ruminal microflora; 24 h,62.7%
same,"Rate of rumen bypass (%), Average",ruminal microflora; 36 h,36.0%
same,"Rate of rumen bypass (%), replicate 1",ruminal microflora; 36 h,29.4%
same,"Rate of rumen bypass (%), replicate 2",ruminal microflora; 36 h,42.3%
same,"Rate of rumen bypass (%), replicate 3",ruminal microflora; 36 h,36.2%
same,"Rate of rumen bypass (%), Average",ruminal microflora; 48 h,1.5%
same,"Rate of rumen bypass (%), replicate 1",ruminal microflora; 48 h,1.9%
same,"Rate of rumen bypass (%), replicate 2",ruminal microflora; 48 h,1.5%
same,"Rate of rumen bypass (%), replicate 3",ruminal microflora; 48 h,0.9%
CSCC[C@H](NC(C)=O)C(=O)O [N-acetyl-L-methionine],L-methionine (mM) after the reaction,[1],10.9 mM
same,"Rate of rumen bypass (%), Average",ruminal microflora; 0 h,100%
same,"Rate of rumen bypass (%), replicate 1",ruminal microflora; 0 h,100%
same,"Rate of rumen bypass (%), replicate 2",ruminal microflora; 0 h,100%
same,"Rate of rumen bypass (%), replicate 3",ruminal microflora; 0 h,100%
same,"Rate of rumen bypass (%), Average",ruminal microflora; 24 h,89.1%
same,"Rate of rumen bypass (%), replicate 1",ruminal microflora; 24 h,87.5%
same,"Rate of rumen bypass (%), replicate 2",ruminal microflora; 24 h,90.5%
same,"Rate of rumen bypass (%), replicate 3",ruminal microflora; 24 h,89.4%
same,"Rate of rumen bypass (%), Average",ruminal microflora; 36 h,76.2%
same,"Rate of rumen bypass (%), replicate 1",ruminal microflora; 36 h,72.5%
same,"Rate of rumen bypass (%), replicate 2",ruminal microflora; 36 h,80.1%
same,"Rate of rumen bypass (%), replicate 3",ruminal microflora; 36 h,76.0%
same,"Rate of rumen bypass (%), Average",ruminal microflora; 48 h,55.4%
same,"Rate of rumen bypass (%), replicate 1",ruminal microflora; 48 h,52.6%
same,"Rate of rumen bypass (%), replicate 2",ruminal microflora; 48 h,57.2%
same,"Rate of rumen bypass (%), replicate 3",ruminal microflora; 48 h,56.5%
same,"Amount of production, 3.5% FCM (Fat-corrected milk)",[2]; [4],43.4 kg/day
same,"Amount of production, ECM (Energy-corrected milk)",[2]; [4],42.9 kg/day
same,"Feed efficiency, 3.5% FCM yield/DMI",[2]; [4],1.72
same,"Feed efficiency, ECM yield/DMI",[2]; [4],1.70
same,"Feed efficiency, Milk production/Feed intake (Milk yield/DMI)",[2]; [4],1.66
same,"Production of milk ingredients, Milk fat",[2]; [4],1.56 kg/day
same,"Production of milk ingredients, Milk protein",[2]; [4],1.18 kg/day
same,"Rate of milk ingredients, Milk fat",[2]; [4],3.70%
same,"Rate of milk ingredients, Milk protein",[2]; [4],2.83%
same,"3.5% FCM production, rate of increase (%)",[2]; vs non-addition group,7.4%
same,"ECM production, rate of increase (%)",[2]; vs non-addition group,6.7%
same,"Feed efficiency 3.5% FCM yield/DMI, rate of increase (%)",[2]; vs non-addition group,9.6%
same,"Feed efficiency ECM yield/DMI, rate of increase (%)",[2]; vs non-addition group,8.3%
same,"Feed efficiency Milk yield/DMI, rate of increase (%)",[2]; vs non-addition group,3.1%
same,"Production of milk ingredients, Milk fat, rate of increase (%)",[2]; vs non-addition group,12.2%
same,"Production of milk ingredients, Milk protein, rate of increase (%)",[2]; vs non-addition group,3.5%
same,"Rate of milk ingredients, Milk fat, rate of increase (%)",[2]; vs non-addition group,10.8%
same,"Rate of milk ingredients, Milk protein, rate of increase (%)",[2]; vs non-addition group,1.8%
same,Average daily weight gain,[3]; [5],1.48 kg/day
same,"Weight of beef steer, 3 months after feeding",[3]; [5],382.1 kg
same,additional weight gain,"[3]; in comparison with one without the N-acetyl-L-methionine, 90 days",16.5 kg
same,"Weight gain, rate of increase (%)",[3]; vs non-addition group,14.2%
